Assay results published in patent publication US9914722B2, “Compounds for treating spinal muscular atrophy” (PTC Therapeutics Inc., priority 2012, dated 2018).
Entries after “also recorded” stand apart in the source; their conditions may differ.

Columns and labels:
[1] = test system: gems (Smn-dependent nuclear speckles) in SMA patient fibroblast cells; experiment: Gems count (Smn-dependent nuclear speckle count) assay; type: cell-based, human; conditions: Type 1 SMA patient fibroblasts, 48 hour, fluorescence microscopy, relative to DMSO, FIG. 7
Excerpt: Gems Count (Smn-Dependent Nuclear Speckle Count) Assay
The level of Smn protein directly correlates with the amount of nuclear foci, also known as gems, produced upon staining the cell with a fluorescently labeled anti-Smn antibody (Liu and Dreyfuss, EMBO J., 1996, 15:3555). Gems are multi-protein complexes whose formation is nucleated by the Smn protein and the gems count assay is used to evaluate the level of Smn protein in the cell. As described herein, the gems count assay is used to quantify the level of Smn protein in SMA patient fibroblast cells treated with a test compound.
Protocol: Cells are thawed and incubated in DMEM-10% FBS for 72 hours, then trypsinized, counted and resuspended to 100,000 cells/mL in DMEM-10% FBS. The cell suspension (2 mL) is plated in a 6-well cell culture plate with a sterile cover slip and incubated for 3 to 5 hours. Test compounds are serially diluted 3.16-fold in 100% DMSO to generate a 7-point dilution curve. […]
Cell culture medium is aspirated from the wells containing cover slips and gently washed three times with cold PBS. […] The number of gems is counted per ≧150 nuclei and % activation is calculated using DMSO and 10 nM bortezomib as controls. For each test compound, the cells are examined at all wavelengths to identify test compounds with inherent fluorescence.

[2] = test system: SMN2 full length and Δ7 mRNA; experiment: Endogenous SMN2 mRNA RT-qPCR splicing assay in cultured cells; type: cell-based, human; conditions: 24 hr, FIG. 4
Protocol: Endogenous SMN2 mRNA RT-qPCR Splicing Assay in Cultured Cells
The reverse transcription-quantitative PCR-based (RT-qPCR) assay is used to quantify the levels of the SMN2 full length and Δ7 mRNA in primary cells and cell lines containing the SMN2 gene treated with a test compound.
Protocol. GM03813 SMA patient cells (5,000 cells/well) are seeded in 200 μL, of cell culture medium (DMEM plus 10% FBS) in 96-well flat-bottom plates and the plate is immediately swirled to ensure proper dispersal of cells, forming an even monolayer of cells. Cells are allowed to attach for at least 4-6 hrs. Test compounds are serially diluted 3.16-fold in 100% DMSO to generate a 7-point concentration curve. A solution of test compound (1 μL, 200× in DMSO) is added to each test well and 1 μL, DMSO is added to each control well. The plate is incubated for 24 hrs in a cell culture incubator (37° C., 5% CO2, 100% relative humidity). The cells are then lysed in Cells-To-Ct lysis buffer and the lysate is stored at −80° C.
SMN2-specific spliced products and GAPDH mRNA are identified using the following primers and probes in Table 5. […] Since the SMA patient cells used in Example 3 contain only the SMN2 gene, RT-qPCR can quantify only SMN2 full-length and Δ7 mRNA. […]
The increase of SMN2 FL and decrease in SMN2 Δ7 mRNA relative to those in cells treated with vehicle control are determined from real-time PCR data using a modified ΔΔCt method (as described in Livak and Schmittgen, Methods, 2001, 25:402-8). The amplification efficiency (E) is calculated from the slope of the amplification curve for SMN2 FL, SMN2 Δ7, and GAPDH individually. The abundance of SMN2 FL, SMN2 Δ7 and GAPDH mRNA are then calculated as (1+E)^−Ct, where Ct is the threshold value for each amplicon. […]

[3] = GM03813 Type 1 SMA patient fibroblasts, increasing concentrations

COc1ccc(-c2cc(=O)c3cc(N4CCN[C@@H](C)C4)ccc3o2)cc1F [Cpd 38, 2-(3-fluoro-4-methoxyphenyl)-6-[(3S)-3-methylpiperazin-1-yl]-4H-chromen-4-one]
nuclear speckle counts (gems) [1]: progressively more gems relative to cells treated with DMSO; also recorded: increase in nuclear speckle counts (gems)
SMN2 FL mRNA relative to vehicle [2, 3]: progressively more SMN2 FL mRNA
SMN2 Δ7 mRNA relative to vehicle [2, 3]: less SMN2 Δ7 mRNA
SMN2 alternative splicing ([2]; Type 1 SMA patient fibroblasts, rising concentrations): correction of SMN2 alternative splicing
